Legend:
Format in all cases: in vivo
Avenua = assay: Post-emergence greenhouse test, % damage; conditions: after about 3 weeks
Excerpt: (§1) The expected activity for a given combination of two herbicides can be calculated as follows (cf. COLBY, S. R.: “Calculating synergistic and antagonistic responses of herbicide combinations”, Weeds 15, pages 20-22, 1967): • If X=% damage by herbicide A (active compound of the formula (I) at an application rate of p kg/ha • and Y=% damage by herbicide B (active compound of the formula II) at an application rate of q kg/ha • and E=the expected damage of the herbicides A and B at application rates of p and q kg/ha, • then E=X+Y−(X*Y/100).
(§2) Customary formulations of the active compounds in question were used. Propoxycarbazone-sodium was used as 70 WG, flufenacet as 60 WG and picolinafen as 75 WG formulation. From the active compounds, an aqueous spray liquor containing 0.1% of the additive Renex-36 was prepared.
(§3) Test plants are grown in a greenhouse under controlled conditions (temperature and light conditions). When the plants have reached a height of 5 to 15 cm, they are sprayed with the test solution. The concentration of the spray liquor is chosen such that the particular amounts of active compound desired are applied in 500 l of water/ha.
(§4) After the spray treatment, the plant containers are stored in a greenhouse at constant light and temperature conditions.
(§5) After about 3 weeks, the degree of damage to the crop plants is rated in % damage in comparison to the development of the untreated control.
(§6) The figures denote: • 0%=no damage (like untreated control) • 100%=total destruction/damage

Cassia = assay: Post-emergence greenhouse test, % damage; conditions: Table A-4, after about 3 weeks
Excerpt: as §1, §2, §3, §4, §5, §6

Digitaria = assay: Post-emergence greenhouse test, % damage; conditions: Table A-2, after about 3 weeks
Excerpt: as §1, §2, §3, §4, §5, §6

Echinochloa = assay: Post-emergence greenhouse test, % damage; conditions: Table A-3, after about 3 weeks
Excerpt: as §1, §2, §3, §4, §5, §6

Ipomoea = assay: Post-emergence greenhouse test, % damage; conditions: Table A-5, after about 3 weeks
Excerpt: as §1, §2, §3, §4, §5, §6

Viola = assay: Post-emergence greenhouse test, % damage; conditions: Table A-6, after about 3 weeks
Excerpt: as §1, §2, §3, §4, §5, §6

Galium = assay: Outdoor trials in cereal, post-emergence spring, herbicidal activity; conditions: about 8-10 weeks after application
Excerpt: as §1
(§7) To examine a possible synergism, the compounds picolinafen and propoxycarbazone-sodium were tested under outdoor conditions in cereal against economically important weed grasses. The small-plot experiments were conducted on areas used for agricultural cultivation.
(§8) The active compounds were applied in spring by the post-emergence method and over the entire area, using spray application with a medium droplet size. To prepare an advantageous preparation of active compound, the active compounds were formulated as 70 WG (70% w/w water-dispersible powder) or 75 WG (75% w/w water-dispersible powder) and suspended in water. The spray liquor was then applied in a water application rate customarily used in practice.
(§9) About 8-10 weeks after the application of the spray liquor, the herbicidal activity was scored visually. The figures denote: • 0%=no herbicidal effect, • 100%=total destruction of the crop or the weeds.

Lactuca = assay: as above; conditions: about 8-10 weeks after application
Excerpt: as §1, §7, §8, §9

Legousia = assay: as above; conditions: about 8-10 weeks after application
Excerpt: as §1, §7, §8, §9

Matricaria ch. = assay: as above; conditions: about 8-10 weeks after application
Excerpt: as §1, §7, §8, §9

Matricaria in. = assay: as above; conditions: about 8-10 weeks after application
Excerpt: as §1, §7, §8, §9

Stellaria = assay: as above; conditions: about 8-10 weeks after application
Excerpt: as §1, §7, §8, §9

Work on `CC(C)N(C(=O)COc1nnc(C(F)(F)F)s1)c1ccc(F)cc1` [flufenacet, N-isopropyl-N-(4-fluorophenyl)-(5-trifluoromethyl-1,3,4-thiadiazol-2-yl-oxy)-acetamide] yielded an Avenua observed (Avenua; 30 g of ai/ha, Table A-1) of 10%, an Avenua observed (Avenua; 60 g of ai/ha, Table A-1) of 10% and a Cassia observed (Cassia; 125 g of ai/ha) of 0%. It also gave a Digitaria observed (Digitaria; 60 g of ai/ha) of 0%, a Digitaria observed (Digitaria; 125 g of ai/ha) of 10% and an Echinochloa observed (Echinochloa; 60 g of ai/ha) of 60%. The Ipomoea observed (Ipomoea; 60 g of ai/ha) was 30%, the Ipomoea observed (Ipomoea; 125 g of ai/ha) was 30% and the Viola observed (Viola; 60 g of ai/ha) was 0%.
`O=C(Nc1ccc(F)cc1)c1cccc(Oc2cccc(C(F)(F)F)c2)n1` [picolinafen, N-(4-fluorophenyl)-6-[3-(trifluoromethyl)phenoxy]-2-pyridinecarboxamide] was tested, and the Avenua observed (Avenua; 8 g of ai/ha, Table A-1) was 0%, the Avenua observed (Avenua; 15 g of ai/ha, Table A-7) was 10% and the Avenua observed (Avenua; 15 g of ai/ha, Table A-8) was 0%. The Avenua observed (Avenua; 15 g of ai/ha, Table A-9) was 70%, the Avenua observed (Avenua; 30 g of ai/ha, Table A-1) was 20% and the Avenua observed (Avenua; 30 g of ai/ha, Table A-7) was 20%. For the same compound, the Avenua observed (Avenua; 30 g of ai/ha, Table A-8) was 20%, the Avenua observed (Avenua; 30 g of ai/ha, Table A-9) was 70% and the Cassia observed (Cassia; 30 g of ai/ha) was 40%. For the same compound, the Digitaria observed (Digitaria; 30 g of ai/ha) was 50%, the Echinochloa observed (Echinochloa; 8 g of ai/ha) was 10% and the Ipomoea observed (Ipomoea; 8 g of ai/ha) was 70%. For the same compound, the Ipomoea observed (Ipomoea; 15 g of ai/ha) was 70%, the Ipomoea observed (Ipomoea; 30 g of ai/ha) was 70% and the Viola observed (Viola; 8 g of ai/ha) was 90%. For the same compound, the Galium observed (Galium; 75 g of ai/ha) was 30%, the Lactuca observed (Lactuca; 75 g of ai/ha) was 0% and the Legousia observed (Legousia; 75 g of ai/ha) was 0%. The “Matricaria ch. observed 1st location” value (Matricaria ch.; 75 g of ai/ha) was 0%, the “Matricaria ch. observed 2nd location” value (Matricaria ch.; 75 g of ai/ha) was 0% and the Matricaria in. observed (Matricaria in.; 75 g of ai/ha) was 45%. It also gave a Stellaria observed (Stellaria; 75 g of ai/ha) of 20%.
Compound `CCCOc1nn(C(=O)NS(=O)(=O)c2ccccc2C(=O)OC)c(=O)n1C.[Na]` [propoxycarbazone-sodium, methyl 2-[[[(4,5-dihydro-4-methyl-5-oxo-3-propoxy-1H-1,2,4-triazol-1-yl)carbonyl]-amino]-sulphonyl]-benzoate sodium salt] has an Avenua observed (Avenua; 15 g of ai/ha, Table A-7) of 50%, an Avenua observed (Avenua; 15 g of ai/ha, Table A-8) of 0% and an Avenua observed (Avenua; 15 g of ai/ha, Table A-9) of 0%. For the same compound, the Avenua observed (Avenua; 30 g of ai/ha, Table A-7) was 50%, the Avenua observed (Avenua; 30 g of ai/ha, Table A-8) was 20% and the Avenua observed (Avenua; 30 g of ai/ha, Table A-9) was 0%. The Avenua observed (Avenua; 60 g of ai/ha, Table A-7) was 60%, the Avenua observed (Avenua; 60 g of ai/ha, Table A-9) was 0% and the Galium observed (Galium; 42 g of ai/ha) was 0%. For the same compound, the Lactuca observed (Lactuca; 42 g of ai/ha) was 10%, the Legousia observed (Legousia; 42 g of ai/ha) was 0% and the “Matricaria ch. observed 1st location” value (Matricaria ch.; 42 g of ai/ha) was 60%. The “Matricaria ch. observed 2nd location” value (Matricaria ch.; 42 g of ai/ha) was 10%, the Matricaria in. observed (Matricaria in.; 42 g of ai/ha) was 75% and the Stellaria observed (Stellaria; 42 g of ai/ha) was 30%.

— patent US6849578B1, “Selective herbicides based on 2,6-disubstituted pyridine derivatives” (Bayer Aktiengesellschaft, priority 1999, dated 2005)
